The record followed here is US12582696B2, “Debaryomyces species as an indicator of non-healing ulcers in Crohn's disease” (Washington University, priority 2019, dated 2026).

Molecules are shown by their SMILES. ≈ marks a conversion by molar mass, not a printed value.

One data set deals with D. hansenii. Briefly: biopsy injury model in WT mice gavaged with D. hansenii CDA1 (human clinical isolate). The data set is classed as in vivo. As to conditions: WT mice gavaged with D. hansenii CDA1 with or without amphotericin B; day 12 post-injury. Here is the method:
For inoculation experiments, yeasts were expanded in Sabouraud dextrose agar (SDA) for 2-4 days at 30° C. prior to gavage. Mice were gavaged with pure culture of D. hansenii (obtained from the wounds of antibiotic-treated mice or inflamed tissues of Crohn's disease) or Saccharomyces cerevisiae (ATCC) at ˜10^6 CFU/mouse, unless otherwise stated, in 150 μl of PBS. Controls received PBS only. For all inoculation experiments, gavage occurred 2 days before injury, on the day of injury, and 2, 4, and 6 days post-injury unless otherwise stated.
To ascertain whether human clinical isolates of D. hansenii were capable of inducing repair defects, the following experiments were conducted. WT mice were gavaged with D. hansenii CDA1 (Table 3) using methods similar to those described above. The CDA isolate was associated with impaired crypt regeneration in the biopsy injury model, and this effect was reversed by amphotericin B treatment (FIG. 11G, I).

Data set [1] has as its system mucosal wounds in the distal colon of mice. Briefly: biopsy injury model in WT mice without VNAM or D. hansenii gavage. The data set is classed as in vivo. As to conditions: amphotericin B in the absence of D. hansenii gavage and VNAM; day 12 post-injury. From the text: C57BL6 WT were purchased from Jackson Laboratories (Bar Harbor, ME) or Taconic Biosciences and acclimatized in a specific pathogen-free facility for 1 week before conducting any experiment. Biopsy forceps and a miniaturized colonoscope system (Karl Storz) were used to create mucosal wounds in the distal colon of mice as described previously. Briefly, mice were anesthetized using ketamine/xylazine and stool pellets were removed from the colon by flushing with PBS. Next, 3 French biopsy forceps were inserted into the colon and 3-5 thickness areas of mucosa and submucosa were removed under the guidance of an endoscopy camera. Biopsy injured mice were euthanized, and wounds were collected on days 4, 6, 8, and 12 to evaluate healing. Biopsy injury was performed by investigators blinded to the treatments.
(§1) For hematoxylin and eosin (H&E) staining, wounds were collected and embedded in optimum cutting temperature (OCT) formulation (Thermo Fisher Scientific), and 5 μm frozen sections were obtained using a cryostat. […] Images were analyzed using Olympus CellSens Standard imaging software to measure the wound bed length defined as the distance between the two farthest crypts in the center of the wound bed. 2-3 wounds per mouse were analyzed and wound bed lengths were averaged to obtain one value per mouse. […]

Data set [2] shares this test system. Briefly: colonic biopsy injury model, mucosal wound repair in VNAM-treated mice. The data set is classed as in vivo. Particulars: day 12 post-injury.
Text: To test the role of microbes in mucosal wound repair, a biopsy injury model was used where the timing and site of injuries are known in each experiment. Wound repair in this model occurs in distinct phases. Barrier re-establishment begins immediately upon injury and lasts for 4 days, and is characterized by the formation of wound associated epithelial (WAE) cells that cover the denuded mucosa. Wound channel formation phase (day 4-day 8), involves extensive proliferation of epithelial cells in crypts adjacent to the wound, forming channels that emanate towards the center of the wound. These two phases culminate in the formation of new crypts that is complete within 12 days post-injury.
C57BL6 WT were purchased from Jackson Laboratories (Bar Harbor, ME) or Taconic Biosciences and acclimatized in a specific pathogen-free facility for 1 week before conducting any experiment. […]
as §1

The next data set deals with fungi. Briefly: fungi in colonic wounds of biopsy-injured mice (ITS qPCR, anti-fungal antibody staining, ITS sequencing, SDA culture). As to conditions: VNAM-treated mice; amphotericin B orally once daily from 3 days before injury to day 6 post-injury. The class given is in vivo. On the procedure: Quantitative PCR was performed on the mice of Ex. 4 to identify fungal microbiota within the intestinal wounds. About three fecal pellets or 10-50 mg samples of intestinal tissue were resuspended in Tris buffer supplemented with 1000 U/ml of lyticase (Sigma), 1 mM EDTA, and 0.2% β-mercaptoethanol (Sigma). DNA was extracted using either the DNeasy PowerLyzer PowerSoil kit (Qiagen) or DNA mini stool extraction kit (Qiagen) according to manufacturer's instructions.
Quantitative PCR was performed using SYBR Green (Roche) or SYBR Green Jumpstart Taq Ready mix (Sigma) on an Eppendorf Mastercycler (Eppendorf) using the following primers as described previously (23, 42, 52)—Saccharomyces cerevisiae: forward (5′-[…]-3′, SEQ ID NO:3), reverse (5′-[…]-3′, SEQ ID NO:4), Candida tropicalis: forward (5′-[…]-3′, SEQ ID NO:5), reverse (5′-[…]-3′, SEQ ID NO:6), Debaryomyces hansenii: forward (5′-[…]—3′, SEQ ID NO:7), reverse (5′-[…]-3′, SEQ ID NO:8) and ITS1-2: forward (5′-[…]-3′, SEQ ID NO:9), reverse (5′-[…]-3′, SEQ ID NO:10). The following conditions were used: 94° C. for 10 minutes, followed by 40 cycles of 94° C. for 30 seconds, 55° C. for 30 seconds, and 72° C. for 2 minutes, ending with 72° C. for 30 minutes. […]
On the technique in general: Quantitative PCR measures a nucleic acid by following its amplification.

The subject of another data set is PGE2. Briefly: wound PGE2 levels in VNAM administered, biopsy injured mice. The data set is classed as in vivo. As to conditions: day 6 post-injury, NS-398 vs vehicle, p<0.01. Here is the method: Antibiotic-treated (VNAM) mice received the following cocktail for 4 weeks prior to biopsy injury until the day of sacrifice in drinking water: 0.5 g/L Vancomycin, 1 g/L Neomycin, 1 g/L Ampicillin, 1 g/L Metronidazole, and 1 g/L Kool-aid. Control mice received Kool-aid alone. Mice were treated with VNAM in the following figures: FIG. 8A-F, FIG. 9A-E, FIG. 12A-D, FIG. 13, FIG. 14, and FIG. 19A. […]

The next data set relates to Debaryomyces sp. Briefly: mini screen with known water-soluble antifungals (MIC, dose-response). The class given is cell-based.

Take `C[C@@H]1[C@H](O)[C@@H](C)/C=C/C=C/C=C/C=C/C=C/C=C/C=C/[C@H](O[C@@H]2O[C@H](C)[C@@H](O)[C@H](N)[C@@H]2O)C[C@@H]2O[C@](O)(C[C@@H](O)C[C@@H](O)[C@H](O)CC[C@@H](O)C[C@@H](O)CC(=O)O[C@H]1C)C[C@H](O)[C@H]2C(=O)O` [amphotericin B]: in the data set on D. hansenii, the “impaired crypt regeneration caused by D. hansenii CDA1 (wound bed length)” value is listed as “reversed”. Besides, in data set [1], the “repair of WT mice (wound bed length)” value was “did not demonstrate any obvious defects in repair”. Besides, the “crypt regeneration (wound bed length)” value in data set [2] (VNAM-treated mice, amphotericin B orally) is on record as “reversed the crypt regeneration defects”. For the same compound, the “fungal antigen detection in the wounds” value in the data set on fungi is on record as “reduced fungal antigen detection”.
In the case of `CS(=O)(=O)Nc1ccc([N+](=O)[O-])cc1OC1CCCCC1` [NS-398], the “wound PGE2 levels” value with PGE2 was “ablation of PGE2”. Further, the “wound bed length, NS-398 vs vehicle” value in data set [2] (VNAM pre-treated mice, NS-398 2.5 mg/kg i.p. twice daily days 4-10) is recorded as “not significant”.
The term MIC denotes the lowest concentration that inhibits growth of the organism. Consider `CC[C@H](C)C[C@H](C)CCCCCCCCC(=O)N[C@H]1C[C@@H](O)[C@@H](NCCN)NC(=O)[C@@H]2[C@@H](O)CCN2C(=O)[C@H]([C@H](O)CCN)NC(=O)[C@H]([C@H](O)[C@@H](O)c2ccc(O)cc2)NC(=O)[C@@H]2C[C@@H](O)CN2C(=O)[C@H]([C@@H](C)O)NC1=O` [caspofungin], for which inhibition of growth in the data set with Debaryomyces sp. (Debaryomyces) (MIC) required 0.62 µg/mL (≈ 0.567 µM). For the same compound, in the data set on Debaryomyces sp. (against Debaryomyces sp., water-soluble antifungals), the “effectiveness compared to azoles in the antifungal screen” value is given as “most effective at lowest concentrations”.
